Values of other authors as cited in PubChem BioAssay AID1259409 (Chemical Carcinogenesis Research Information System (CCRIS), 2018).
Where “and” joins values, the source holds several entries; their conditions need not be identical. Equal values may be shown once.

Tested on: rodent chemically induced tumor inhibition, incidence and multiplicity
Assay: CCRIS tumor inhibitor studies
Conditions: Route [Inhibitor]: ORAL

Row | SMILES | tumour outcome (control, treated, inhibition, significance) (Carcinogen: N-NITROSOBIS(2-OXOPROPYL)AMINE, 60599-38-4, Dose [Inhibitor]: 0.25 MMOL/KG DIET FOR 364 D STARTING 2 WK AFTER LAST CARCINOGEN DOSE (STUDY DURATION: 55 WK), Species: HAMSTER, Strain/Sex: SYRIAN/FEMALE, Target Tissue: Type of Lesion: LIVER: CARCINOMA, Dose [Carcinogen]: 20 MG/KG INJECTION GIVEN TWICE 1 WK APART, Promoter: NONE USED) | tumour outcome (control, treated, inhibition, significance) (Carcinogen: N-NITROSOBIS(2-OXOPROPYL)AMINE, 60599-38-4, Dose [Inhibitor]: 0.25 MMOL/KG DIET FOR 364 D STARTING 2 WK AFTER LAST CARCINOGEN DOSE (STUDY DURATION: 55 WK), Species: HAMSTER, Strain/Sex: SYRIAN/MALE, Target Tissue: Type of Lesion: LIVER: CARCINOMA, Dose [Carcinogen]: 20 MG/KG INJECTION GIVEN TWICE 1 WK APART, Promoter: NONE USED) | tumour outcome (control, treated, inhibition, significance) (Carcinogen: N-NITROSOBIS(2-OXOPROPYL)AMINE, 60599-38-4, Dose [Inhibitor]: 0.25 MMOL/KG DIET FOR 364 D STARTING 2 WK AFTER LAST CARCINOGEN DOSE (STUDY DURATION: 55 WK), Species: HAMSTER, Strain/Sex: SYRIAN/MALE, Target Tissue: Type of Lesion: PANCREAS: CARCINOMA, Dose [Carcinogen]: 20 MG/KG INJECTION GIVEN TWICE 1 WK APART, Promoter: NONE USED) | tumour outcome (control, treated, inhibition, significance) (Carcinogen: N-NITROSOBIS(2-OXOPROPYL)AMINE, 60599-38-4, Dose [Inhibitor]: 0.5 MMOL/KG DIET FOR 209 D STARTING 2 WK AFTER LAST CARCINOGEN DOSE FOLLOWED BY 0.25 MMOL/KG DIET FOR 117 D WITH INTERMI, Species: HAMSTER, Strain/Sex: SYRIAN/FEMALE, Target Tissue: Type of Lesion: LIVER: CARCINOMA, Dose [Carcinogen]: 20 MG/KG INJECTION GIVEN TWICE 1 WK APART, Promoter: NONE USED) | tumour outcome (control, treated, inhibition, significance) (Carcinogen: N-NITROSOBIS(2-OXOPROPYL)AMINE, 60599-38-4, Dose [Inhibitor]: 0.5 MMOL/KG DIET FOR 209 D STARTING 2 WK AFTER LAST CARCINOGEN DOSE FOLLOWED BY 0.25 MMOL/KG DIET FOR 117 D WITH INTERMI, Species: HAMSTER, Strain/Sex: SYRIAN/FEMALE, Target Tissue: Type of Lesion: PANCREAS: CARCINOMA, Dose [Carcinogen]: 20 MG/KG INJECTION GIVEN TWICE 1 WK APART, Promoter: NONE USED) | tumour outcome (control, treated, inhibition, significance) (Carcinogen: N-NITROSOBIS(2-OXOPROPYL)AMINE, 60599-38-4, Dose [Inhibitor]: 0.5 MMOL/KG DIET FOR 209 D STARTING 2 WK AFTER LAST CARCINOGEN DOSE FOLLOWED BY 0.25 MMOL/KG DIET FOR 117 D WITH INTERMI, Species: HAMSTER, Strain/Sex: SYRIAN/MALE, Target Tissue: Type of Lesion: LIVER: HEPATOCELLULAR CARCINOMA, Dose [Carcinogen]: 20 MG/KG INJECTION GIVEN TWICE 1 WK APART, Promoter: NONE USED) | tumour outcome (control, treated, inhibition, significance) (Carcinogen: N-NITROSOBIS(2-OXOPROPYL)AMINE, 60599-38-4, Dose [Inhibitor]: 0.5 MMOL/KG DIET FOR 209 D STARTING 2 WK AFTER LAST CARCINOGEN DOSE FOLLOWED BY 0.25 MMOL/KG DIET FOR 117 D WITH INTERMI, Species: HAMSTER, Strain/Sex: SYRIAN/MALE, Target Tissue: Type of Lesion: PANCREAS: CARCINOMA, Dose [Carcinogen]: 20 MG/KG INJECTION GIVEN TWICE 1 WK APART, Promoter: NONE USED) | tumour outcome (control, treated, inhibition, significance) (Carcinogen: 3'-METHYL-4-DIMETHYLAMINOAZOBENZENE, 55-80-1, Dose [Inhibitor]: 0.1% IN DIET DAILY FOR 4 WK STARTING AFTER 4 WK OF CARCINOGEN TREATMENT (STUDY DURATION: 20 WK), Species: RAT, Target Tissue: Type of Lesion: LIVER: TUMOR, Dose [Carcinogen]: 0.064% IN DIET DAILY FOR 8 WK 4 WK BEFORE AND ANOTHER 4 WK AFTER AGENT TREATMENT, Promoter: NONE USED) | tumour outcome (control, treated, inhibition, significance) (Carcinogen: DIETHYLNITROSAMINE, 55-18-5, Dose [Inhibitor]: 0, 1% IN DIET BEGINNING 1 WK POST CARCINOGEN DOSE (STUDY DURATION: 52 WK), Species: MOUSE, Strain/Sex: C3H/MALE, Target Tissue: Type of Lesion: LIVER: ADENOMA, Dose [Carcinogen]: 150 MG/KG ONCE, Promoter: PHENOBARBITAL, 50-06-6) | tumour outcome (control, treated, inhibition, significance) (Carcinogen: DIETHYLNITROSAMINE, 55-18-5, Dose [Inhibitor]: 0, 1% IN DIET BEGINNING 1 WK POST CARCINOGEN DOSE (STUDY DURATION: 52 WK), Species: MOUSE, Strain/Sex: C3H/MALE, Target Tissue: Type of Lesion: LIVER: CARCINOMA, Dose [Carcinogen]: 150 MG/KG ONCE, Promoter: PHENOBARBITAL, 50-06-6) | tumour outcome (control, treated, inhibition, significance) (Carcinogen: DIETHYLNITROSAMINE, 55-18-5, Dose [Inhibitor]: 0, 1% IN DIET BEGINNING 1 WK POST CARCINOGEN DOSE (STUDY DURATION: 52 WK), Species: MOUSE, Strain/Sex: C3H/MALE, Target Tissue: Type of Lesion: LUNG: ADENOMA OR ADENOCARCINOMA, Dose [Carcinogen]: 150 MG/KG ONCE, Promoter: NONE USED) | tumour outcome (control, treated, inhibition, significance) (Carcinogen: DIETHYLNITROSAMINE, 55-18-5, Dose [Inhibitor]: 0, 1% IN DIET BEGINNING 1 WK POST CARCINOGEN DOSE (STUDY DURATION: 52 WK), Species: MOUSE, Strain/Sex: C3H/MALE, Target Tissue: Type of Lesion: LUNG: ADENOMA OR ADENOCARCINOMA, Dose [Carcinogen]: 150 MG/KG ONCE, Promoter: PHENOBARBITAL, 50-06-6) | tumour outcome (control, treated, inhibition, significance) (Carcinogen: DIETHYLNITROSAMINE, 55-18-5, Dose [Inhibitor]: 0, 1% IN DIET BEGINNING 1 WK PRIOR TO POST CARCINOGEN DOSE (STUDY DURATION: 52 WK), Species: MOUSE, Strain/Sex: C3H/MALE, Target Tissue: Type of Lesion: LIVER: ADENOMA, Dose [Carcinogen]: 150 MG/KG ONCE, Promoter: NONE USED) | tumour outcome (control, treated, inhibition, significance) (Carcinogen: ETHIONINE, 13073-35-3, Dose [Inhibitor]: 2.1 MMOL/100 G DIET DAILY FOR 8 MO ADMINISTERED SIMULTANEOUSLY WITH CARCINOGEN FOLLOWED BY 2 MO ON BASAL DIET (STUDY DUR, Species: RAT, Strain/Sex: WISTAR/MALE, FEMALE, Target Tissue: Type of Lesion: LIVER: CARCINOMA, Dose [Carcinogen]: 0.25% OF DIET DAILY FOR 8 MO, Promoter: NONE USED) | tumour outcome (control, treated, inhibition, significance) (Carcinogen: ETHIONINE, 13073-35-3, Dose [Inhibitor]: 4.2 MMOL/100 G DIET DAILY FOR 8 MO ADMINISTERED SIMULTANEOUSLY WITH CARCINOGEN FOLLOWED BY 4 MO ON BASAL DIET (STUDY DUR, Species: RAT, Strain/Sex: WISTAR/MALE, Target Tissue: Type of Lesion: LIVER: CARCINOMA, Dose [Carcinogen]: 0.25% OF DIET DAILY FOR 8 MO, Promoter: NONE USED) | tumour outcome (control, treated, inhibition, significance) (Carcinogen: ETHIONINE, 13073-35-3, Dose [Inhibitor]: 5.7 MMOL/100 G DIET DAILY FOR 8 MO ADMINISTERED SIMULTANEOUSLY WITH CARCINOGEN FOLLOWED BY 4 MO ON BASAL DIET (STUDY DUR, Species: RAT, Strain/Sex: WISTAR/MALE, Target Tissue: Type of Lesion: LIVER: CARCINOMA, Dose [Carcinogen]: 0.25% OF DIET DAILY FOR 8 MO, Promoter: NONE USED)
1 | CC1=C(/C=C/C(C)=C/C=C/C(C)=C\C(=O)Nc2ccc(OC(=O)C(C)(C)C)cc2)C(C)(C)CCC1 | 7%, 10%, -43%, not calculated | 5%, 25%, -400%, not calculated | 34%, 14%, 59%, not calculated and 38%, 28%, 26%, not calculated | 5%, 19%, -280%, not calculated | 38%, 27%, 29%, not calculated | 7%, 19%, -171%, not calculated | 34%, 30%, 12%, not significant | – | – | – | – | – | – | – | – | –
2 | C[N+](C)(C)CCO | – | – | – | – | – | – | – | 7/9 (78%), 9/12 (75%), 4%, not calculated | 16%, 11%, 31%, not calculated | 74%, 72%, 3%, not calculated | 6/14 (43%), 13/24 (54%), -26%, not calculated | 7/19 (37%), 4/18 (22%), 41%, not calculated | 14%, 21%, -50%, not calculated | 9/10 (90%), 5/9 (56%), 38%, not calculated | 8/8 (100%), 6/10 (60%), 40%, not calculated | 8/8 (100%), 7/10 (70%), 30%, not calculated
